Reference: patent US20060262149A1, “Ink jet ink and recording material” (priority 2005, published 2006)

Key:
[1] = Light fastness of magenta ink jet prints on stabilizer-treated Konica QP paper, 100% print density (Example 5); details: HP DeskJet 970 Cxi, stabilizer 650-700 mg/m^2 on Konica QP paper, office fluorescent lighting, None = 25.73
Procedure: (§1) A resin-coated paper impregnated with inorganic adsorbent particles (Konica QP Photoglossy ink jet paper, Konica Corp.) is purchased. On the ink-receiving layer, a 0.8 wt % methanol solution of the instant compounds is applied in an amount to achieve 650-700 mg/m^2. The paper is allowed to dry under ambient temperature and pressure for 24 hours.
Separately, test patterns (magenta) are printed on the treated sheets using a Hewlett Packard DeskJet 970 Cxi printer at 100% print density. The obtained prints are left to dry at ambient temperature and pressure for 24 hours.
(§2) Color densities and CIEL*a*b coordinates before and after exposure are measured using X-Rite 938 Spectrodensitometer. Exposures are carried out using normal office fluorescent lighting. The change in color is given by Delta E (DE) which is calculated by: DE=[(DL*)^2+(Da*)^2+(Db*)^2]^1/2

[2] = Light fastness of cyan, magenta and yellow ink jet prints on stabilizer-treated Konica QP paper, 50% print density (Example 6); details: HP DeskJet 970 Cxi, stabilizer 650-700 mg/m^2, office fluorescent lighting; for DE for magenta after 4 weeks: None = 20.16; for DE for yellow after 4 weeks: None = 4.68
Procedure: as §2
as §1, with “hours. Separately, test patterns (cyan, magenta and yellow) are printed on the treated sheets using a Hewlett Packard DeskJet 970 Cxi printer at 50% print density. The obtained prints are left to dry at ambient temperature and pressure for 24 hours.” for “hours.”
Color densities and CIEL*a*b coordinates before and after exposure are measured using X-Rite 938 Spectrodensitometer. Exposures are carried out using normal office fluorescent lighting.

Row | Compound | DE for magenta after 4 weeks [1] | DE for magenta after 4 weeks [2] | DE for yellow after 4 weeks [2] | DE for cyan after 4 weeks ([2]; cyan, None = 7.29)
1 | CC(C)(O)CON1C(C)(C)CC(O)CC1(C)C [Instant Example 1] | 18.39 | 17.82 | 1.81 | –
2 | CC(C)(O)CON1C(C)(C)CC(O)CC1(C)C [Instant Example 2] | 20.89 | 16.71 | 2.48 | 6.64
